Patent publication US11285127B2, “Compositions and methods for lowering triglycerides without raising LDL-C levels in a subject on concomitant statin therapy” (Amarin Pharmaceuticals Ireland Limited, priority 2013, dated 2022)

How the values were obtained:
Assay type in all cases: in vivo, human
[1] = system: patients with fasting triglyceride levels >200 mg/dl and <500 mg/dl despite statin therapy; assay: 12-week study: lipoprotein associated phospholipase A2 (Lp-PLA2); details: MITT; for Lp-PLA2 Percent change from Baseline Median (IQR): Week 12 endpoint; for Lp-PLA2 Difference from placebo Estimated median: percent change from baseline to Week 12 endpoint
Excerpt: (§1) Parameters (a)-(z) can be measured in accordance with any clinically acceptable methodology. For example, triglycerides, total cholesterol, HDL-C and fasting blood sugar can be sample from serum and analyzed using standard photometry techniques. VLDL-TG, LDL-C and VLDL-C can be calculated or determined using serum lipoprotein fractionation by preparative ultracentrifugation and subsequent quantitative analysis by refractometry or by analytic ultracentrifugal methodology. Apo A1, Apo B and hsCRP can be determined from serum using standard nephelometry techniques. Lipoprotein (a) can be determined from serum using standard turbidimetric immunoassay techniques. LDL particle number and particle size can be determined using nuclear magnetic resonance (NMR) spectrometry. Remnants lipoproteins and LDL-phospholipase A2 can be determined from EDTA plasma or serum and serum, respectively, using enzymatic immunoseparation techniques. Oxidized LDL, intercellular adhesion molecule-1 and interleukin-2 levels can be determined from serum using standard enzyme immunoassay techniques. These techniques are described in detail in standard textbooks, for example Tietz Fundamentals of Clinical Chemistry, 6th Ed. (Burtis, Ashwood and Borter Eds.), WB Saunders Company.
(§2) A multi-center, placebo-controlled, randomized, double-blind, 12-week study was performed to evaluate the efficacy and safety of >96% E-EPA in patients with fasting triglyceride levels >200 mg/dl and <500 mg/dl despite statin therapy (the mean of two qualifying entry values needed to be >185 mg/dl and at least one of the values needed to be >200 mg/dl). The primary objective of the study was to determine the efficacy of >96% E-EPA 2 g daily and 4 g daily, compared to placebo, in lowering fasting TG levels in patients with high risk for cardiovascular disease and with fasting TG levels 200 mg/dl and <500 mg/dl, despite treatment to LDL-C goal on statin therapy.
(§3) The secondary objectives of this study were the following: • 1. To determine the safety and tolerability of >96% E-EPA 2 g daily and 4 g daily; • 2. To determine the effect of >96% E-EPA on lipid and apolipoprotein profiles including total cholesterol (TC), non-high-density lipoprotein cholesterol (non-HDL-C), low density lipoprotein cholesterol (LDL-C), high density lipoprotein cholesterol (HDL-C), and […]; • 3. To determine the effect of >96% E-EPA on lipoprotein associated phospholipase A2 (Lp-PLA2) from baseline to week 12; • 4. To determine the effect of >96% E-EPA on low-density lipoprotein (LDL) particle number and size; • 5. To determine the effect of >96% E-EPA on oxidized LDL; • 6. To determine the effect of >96% E-EPA on fasting plasma glucose (FPG) and hemoglobin A1c (HbA1c); • 7. To determine the effect of >96% E-EPA on insulin resistance; • 8. To determine the effect of >96% E-EPA on high-sensitivity C-reactive protein (hsCRP); • 9. To determine the effects of >96% E-EPA 2 g daily and 4 g daily on the incorporation of fatty acids into red blood cell membranes and into plasma phospholipids; • 10. To explore the relationship between baseline fasting TG levels and the reduction in fasting TG levels; and • 11. To explore the relationship between changes of fatty acid concentrations in plasma and red blood cell membranes, and the reduction in fasting TG levels.
(§4) The primary efficacy variable for the double-blind treatment period was percent change in TG from baseline to Week 12 endpoint. […]

[2] = system: patients with fasting triglyceride levels >200 mg/dl and <500 mg/dl despite statin therapy; assay: 12-week study: lipoprotein particle size (VLDL, LDL, HDL; nuclear magnetic resonance); details: for LDL Particle Size, Week 12 EP Median (IQR): MITT; for LDL Particle Size, Percent change from Baseline, Median (IQR) / LDL Particle Size, Difference from placebo, Estimated median: Week 12, MITT; for LDL Particle Size, Difference from placebo, Estimated median: difference in percent change
Excerpt: as §1, §2, §3, §4

[3] = system: patients with fasting triglyceride levels >200 mg/dl and <500 mg/dl despite statin therapy; assay: 12-week study: oxidized LDL; details: MITT; for Oxidized LDL Percent change from Baseline Median (IQR): Week 12 endpoint; for Oxidized LDL Difference from placebo Estimated median: percent change from baseline to Week 12 endpoint
Excerpt: as §1, §2, §3, §4

[4] = system: patients with fasting triglyceride levels >200 mg/dl and <500 mg/dl despite statin therapy; assay: 12-week study: glucose metabolism (FPG, HbA1c, insulin, HOMA-IR); details: MITT; for Fasting plasma glucose Percent change from Baseline Median (IQR) / HOMA-IR Percent change from Baseline Median (IQR) / HbAlc Percent change from Baseline Median (IQR) / Insulin Percent change from Baseline Median (IQR): Week 12 EP; for Fasting plasma glucose Percent change from Baseline Median (IQR) / HOMA-IR Percent change from Baseline Median (IQR) / HbAlc Percent change from Baseline Median (IQR) / Insulin Percent change from Baseline Median (IQR) / Fasting plasma glucose Difference from placebo Estimated median / HOMA-IR Difference from placebo Estimated median / HbAlc Difference from placebo Estimated median / Insulin Difference from placebo Estimated median: ANCOVA; for Fasting plasma glucose Difference from placebo Estimated median / HOMA-IR Difference from placebo Estimated median / HbAlc Difference from placebo Estimated median / Insulin Difference from placebo Estimated median: change from baseline to Week 12 EP
Excerpt: as §1, §2, §3, §4

[5] = 2 g/day E-EPA (n = 221), 12 weeks
[6] = 2 g/day E-EPA (n = 222), 12 weeks
[7] = 2 g/day, 12 weeks, Hodges-Lehmann median
[8] = 4 g/day E-EPA (n = 215), 12 weeks
[9] = 4 g/day E-EPA (n = 216), 12 weeks
[10] = 4 g/day, 12 weeks, Hodges-Lehmann median, listed as E-EPA
[11] = IPE 4 g/day (n = 215), 12 weeks
[12] = IPE 4 g/day (n = 216), 12 weeks
[13] = IPE 4 g/day vs placebo, 12 weeks, Hodges-Lehmann median

SMILES: CC/C=C\C/C=C\C/C=C\C/C=C\C/C=C\CCCC(=O)OCC [AMR101, ethyl eicosapentaenoate]
- Lp-PLA2 Week 12 EP Median (IQR) ([1]; AMR101 2 g/d + statin): 183.5 (57.5) ng/mL
- Lp-PLA2 Percent change from Baseline Median (IQR) ([1]; AMR101 2 g/d + statin): −1.8 (23.1) %
- Lp-PLA2 Difference from placebo Estimated median ([1]; AMR101 2 g/d + statin): −8.0%
- Lp-PLA2 Week 12 EP Median (IQR) ([1]; AMR101 4 g/d + statin): 160.0 (57.0) ng/mL
- Lp-PLA2 Percent change from Baseline Median (IQR) ([1]; AMR101 4 g/d + statin): −12.8 (18.5) %
- Lp-PLA2 Difference from placebo Estimated median ([1]; AMR101 4 g/d + statin): −19.0%
- LDL particle size, % Δ from baseline (median) [2, 5]: +0.5%
- LDL particle size, End (median) [2, 5]: 20.0 nm
- HDL particle size, % Δ from baseline (median) [2, 6]: 0.0%
- HDL particle size, End (median) [2, 6]: 8.6 nm
- VLDL particle size, % Δ from baseline (median) [2, 6]: −5.0%
- VLDL particle size, End (median) [2, 6]: 53.2 nm
- HDL particle size, Placebo-Adjusted Median Change from Baseline, 2 g/d [2, 7]: 0.0%
- LDL particle size, Placebo-Adjusted Median Change from Baseline, 2 g/d [2, 7]: +0.5%
- VLDL particle size, Placebo-Adjusted Median Change from Baseline, 2 g/d [2, 7]: −4.8%
- LDL particle size, % Δ from baseline (median) [2, 8]: +0.5%
- LDL particle size, End (median) [2, 8]: 20.0 nm
- HDL particle size, % Δ from baseline (median) [2, 9]: −1.1%
- HDL particle size, End (median) [2, 9]: 8.6 nm
- VLDL particle size, % Δ from baseline (median) [2, 9]: −8.1%
- VLDL particle size, End (median) [2, 9]: 51.2 nm
- HDL particle size, Placebo-Adjusted Median Change from Baseline, 4 g/d [2, 10]: −1.2%
- LDL particle size, Placebo-Adjusted Median Change from Baseline, 4 g/d [2, 10]: +0.5%
- VLDL particle size, Placebo-Adjusted Median Change from Baseline, 4 g/d [2, 10]: −7.7%
- LDL Particle Size, Week 12 EP Median (IQR) ([2]; AMR101 2g/d + statin, n 221): 20.0 (0.6) nm
- LDL Particle Size, Percent change from Baseline, Median (IQR) ([2]; AMR101 2g/d + statin): 0.5 (2.5) %
- LDL Particle Size, Difference from placebo, Estimated median ([2]; AMR101 2g/d + statin): 0.5%
- LDL Particle Size, Week 12 EP Median (IQR) ([2]; AMR101 4g/d + statin, n 215): 20.0 (0.6) nm
- LDL Particle Size, Percent change from Baseline, Median (IQR) ([2]; AMR101 4g/d + statin): 0.5 (2.5) %
- LDL Particle Size, Difference from placebo, Estimated median ([2]; AMR101 4g/d + statin): 0.5%
- LDL particle size, Change From Baseline, % (median) [2, 11]: 0.5%
- LDL particle size, End of Treatment (median) [2, 11]: 20.0 nm
- HDL particle size, Change From Baseline, % (median) [2, 12]: −1.1%
- HDL particle size, End of Treatment (median) [2, 12]: 8.6 nm
- VLDL particle size, Change From Baseline, % (median) [2, 12]: −8.1%
- VLDL particle size, End of Treatment (median) [2, 12]: 51.2 nm
- HDL particle size, Median Change From Baseline IPE 4 g/day vs Placebo, % [2, 13]: −1.2%
- LDL particle size, Median Change From Baseline IPE 4 g/day vs Placebo, % [2, 13]: 0.5%
- VLDL particle size, Median Change From Baseline IPE 4 g/day vs Placebo, % [2, 13]: −7.7%
- Oxidized LDL Week 12 EP Median (IQR) ([3]; AMR101 2 g/d + statin): 55.8 (22.8) U/L
- Oxidized LDL Percent change from Baseline Median (IQR) ([3]; AMR101 2 g/d + statin): 2.6 (18.3) %
- Oxidized LDL Difference from placebo Estimated median ([3]; AMR101 2 g/d + statin): −5.8%
- Oxidized LDL Week 12 EP Median (IQR) ([3]; AMR101 4 g/d + statin): 51.4 (17.5) U/L
- Oxidized LDL Percent change from Baseline Median (IQR) ([3]; AMR101 4 g/d + statin): −4.8 (19.6) %
- Oxidized LDL Difference from placebo Estimated median ([3]; AMR101 4 g/d + statin): −13.3%
- Fasting plasma glucose Week 12 EP Median (IQR) ([4]; AMR101 2 g/d + statin): 138.0 (44.9) mg/dL
- HOMA-IR Week 12 EP Median (IQR) ([4]; AMR101 2 g/d + statin): 6.4 (4.5)
- HbAlc Week 12 EP Median (IQR) ([4]; AMR101 2 g/d + statin): 6.8 (1.2) %
- Insulin Week 12 EP Median (IQR) ([4]; AMR101 2 g/d + statin): 18.6 (11.0) μIU/mL
- Fasting plasma glucose Percent change from Baseline Median (IQR) ([4]; AMR101 2 g/d + statin): 3.6 (2.1) %
- HOMA-IR Percent change from Baseline Median (IQR) ([4]; AMR101 2 g/d + statin): −0.6 (0.4) %
- HbAlc Percent change from Baseline Median (IQR) ([4]; AMR101 2 g/d + statin): 0.2 (0.04) %
- Insulin Percent change from Baseline Median (IQR) ([4]; AMR101 2 g/d + statin): −1.2 (0.9) %
- Fasting plasma glucose Difference from placebo Estimated median ([4]; AMR101 2 g/d + statin): −0.6 (3.0)
- HOMA-IR Difference from placebo Estimated median ([4]; AMR101 2 g/d + statin): −0.1 (0.5)
- HbAlc Difference from placebo Estimated median ([4]; AMR101 2 g/d + statin): −0.0 (0.05)
- Insulin Difference from placebo Estimated median ([4]; AMR101 2 g/d + statin): −0.1 (1.3)
- Fasting plasma glucose Week 12 EP Median (IQR) ([4]; AMR101 4 g/d + statin): 141.9 (51.1) mg/dL
- HOMA-IR Week 12 EP Median (IQR) ([4]; AMR101 4 g/d + statin): 6.9 (6.7)
- HbAlc Week 12 EP Median (IQR) ([4]; AMR101 4 g/d + statin): 6.9 (1.1) %
- Insulin Week 12 EP Median (IQR) ([4]; AMR101 4 g/d + statin): 19.0 (16.2) μIU/mL
- Fasting plasma glucose Percent change from Baseline Median (IQR) ([4]; AMR101 4 g/d + statin): 8.9 (2.1) %
- HOMA-IR Percent change from Baseline Median (IQR) ([4]; AMR101 4 g/d + statin): −0.1 (0.4) %
- HbAlc Percent change from Baseline Median (IQR) ([4]; AMR101 4 g/d + statin): 0.3 (0.04) %
- Insulin Percent change from Baseline Median (IQR) ([4]; AMR101 4 g/d + statin): −1.1 (0.9) %
- Fasting plasma glucose Difference from placebo Estimated median ([4]; AMR101 4 g/d + statin): 4.7 (3.0)
- HOMA-IR Difference from placebo Estimated median ([4]; AMR101 4 g/d + statin): 0.3 (0.6)
- HbAlc Difference from placebo Estimated median ([4]; AMR101 4 g/d + statin): 0.1 (0.05)
- Insulin Difference from placebo Estimated median ([4]; AMR101 4 g/d + statin): 0.0 (1.3)
